Assay results reported in the supplement of paper PMC10307832.

Tests used:
Experiment in all cases: relative viability (nuclei count vs DMSO), 5 days (fraction); higher = more cells survive
[1] = compound: CC(C)C[C@H](NC(=O)[C@H](Cc1ccccc1)NC(=O)c1cnccn1)B(O)O [Bortezomib] + CS(=O)(=O)CCNCc1ccc(-c2ccc3ncnc(Nc4ccc(OCc5cccc(F)c5)c(Cl)c4)c3c2)o1 [Lapatinib] (partner 2 µM)
How it was run: (§1)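 One day after seeding in 1536-well plates, lung cancer cell lines were dosed by pin tool. Dosing was either single-drug or a fixed anchor-drug dose plus five library-drug doses (not always all listed) in √10 steps. After 5 days, nuclei were stained in one fix-and-stain step and counted on 4× images, and relative viability is the nuclei count of treated wells over that of vehicle wells, given as the median of duplicate plates.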

[2] = compound: CC(C)C[C@H](NC(=O)[C@H](Cc1ccccc1)NC(=O)c1cnccn1)B(O)O [Bortezomib] + Nc1nc2[nH]cc(CCc3ccc(C(=O)N[C@@H](CCC(=O)O)C(=O)O)cc3)c2c(=O)[nH]1 [Pemetrexed] (partner 0.2 µM)
How it was run: as §1

[3] = compound: CC1=CC(=NN1)NC2=CC(=NC(=N2)/C=C/C3=CC=CC=C3)N4CCN(CC4)C + NC(=O)Nc1cc(-c2cccc(F)c2)sc1C(=O)N[C@H]1CCCNC1 [AZD7762] (partner 0.2 µM)
How it was run: as §1

[4] = compound: COC1=CC(c2cc3ccccc3[nH]2)=N/C1=C\c1[nH]c(C)cc1C [Obatoclax] + COc1cccc2cc(-c3nc([C@H]4CC[C@H](C(=O)O)CC4)n4ncnc(N)c34)[nH]c12 [OSI-027] (partner 0.5 µM)
How it was run: as §1

Work on NCI-H650 yielded a relative viability ([1]; first compound 0.000632 µM) of 0.596, a relative viability ([1]; first compound 0.002 µM) of 1.02 and a relative viability ([1]; first compound 0.006325 µM) of 0.382. For the same cell line, the relative viability ([1]; first compound 0.02 µM) was 0.175, the relative viability ([2]; first compound 0.0002 µM) was 0.914 and the relative viability ([2]; first compound 0.000632 µM) was 0.997. The relative viability ([2]; first compound 0.002 µM) was 0.878, the relative viability ([2]; first compound 0.006325 µM) was 0.85 and the relative viability ([2]; first compound 0.02 µM) was 0.16. The relative viability ([3]; first compound 0.08 µM) was 1.26, the relative viability ([3]; first compound 0.253 µM) was 1.02 and the relative viability ([3]; first compound 0.8 µM) was 1.29. The relative viability ([3]; first compound 2.53 µM) was 0.736, the relative viability ([3]; first compound 8 µM) was 0.187 and the relative viability ([4]; first compound 0.01 µM) was 0.568. For the same cell line, the relative viability ([4]; first compound 0.03162 µM) was 0.449, the relative viability ([4]; first compound 0.3162 µM) was 0.419 and the relative viability ([4]; first compound 1 µM) was 0.274.
